Series [1] can be described thus: L-ascorbic acid in combination with other aromatic aldehydes or derivatives (synergy check). Type of series: cell-based. To be noted: used in combination with L-ascorbic acid.
For series [2], the system named is NHIK 3025 cells. The experiment in a line: Rate of protein synthesis ([3H]valine incorporation related to [14C] protein label). The format is cell-based, Human. The following applies: Table 6, control 4.5. As to the method: Human cells of the established line NHIK 3025, originating from a cervical carcinoma in situ (Nordbye, K., and Oftebro, R. Exp. Cell Res., 58:458, l969), Oftebro, R., and Nordbye, K., Exp. Cell Res., 58:459-460, 1969) were cultivated in Medium E2a (Puck, T.T. et al., J. Exp. Med., 106: 145-165, 1957) supplemented with 20% human and 10% horse serum (Grand Island Biological Co.). The cells are grown as monolayers in tissue culture flasks. […] The cells were kept in continuous exponential growth by frequent reculturing, i.e. every second and third day.
The rate of protein synthesis was calculated as described in Rønning, ø. W. et al., J. Cell Physiol., 107: 47-57, 1981. Briefly, cellular protein was labelled to saturation during a 2-day preincubation with (¹⁴C)valine of constant specific radioactivity (0.5 Ci/mol) prior to the experiment. This was achieved by using a high concentration of valine so that the dilution of (¹⁴C) valine by intracellular valine and by proteolytically generated valine will be negligible (Rønning, ø. W., et al. Exp. Cell Res. 123:63-72, 1979), thus keeping the specific radioactivity at a constant level. The rate of protein synthesis was calculated from the incorporation of (³H) valine of constant specific activity. The incorporation measurements were related to the total of (¹⁴C) radioacitivty in protein at the beginning of the respective measurement periods and expressed as the percentage per hour (Rønning, ø. W. et al, J. Cell, Physiol. 107:47-57, 1981).
From earlier studies, it is known that determination of protein synthesis inhibition is a useful measure of anti-cancer activity. In the present study we have tested the protein synthesis inhibition as induced by both BASS and Asc alone, and by the two active agents in simultaneous combination. The experiment also included samples treated similarly, but where BASS-d₁ was used instead of BASS.

Series [3] concerns NHIK 3025 cells. The experiment in a line: Cell survival (colony formation) after drug treatment. The format is cell-based, Human. The following applies: for Surviving fraction: 1440 min. Here is the method:
The cells are grown as monolayers in tissue culture flasks. […] The cells were kept in continuous exponential growth by frequent reculturing, i.e. every second and third day.
For measurment of cell survival, appropriate numbers of cells were seeded in plastic Petri dishes (⌀ = 5 cm). The number of cells seeded into each dish was adjusted such that the number of surviving cells would be approximately 150 per dish. While exponentially growing (asynchronous) cells were trypsinized before seeding, synchronized cells were seeded immediately after selection. […] After the desired time of treatment, the drug-containing medium was removed, and fresh medium was added. The dishes were rinsed once with the same medium as was to be added on addition or removal of drug. After 10 to 12 days at 37°C in a CO₂ incubator, the cells were fixed in ethanol and stained with methylene blue before the colonies were counted.
The cytotoxic effect of BASS and of ascorbic acid (Asc) used either alone or in simultaneous combination was measured on asynchronous, exponentially growing NHIK 3025 cells.

[4] abbreviates: 1.0 mM BASS or BASS-d1 alone (0 mM Asc), per cent of the total cellular protein per hour.
Where [5] appears, read: 3.2 mM BASS or BASS-d1 alone (0 mM Asc).
Where [6] appears, read: Homo sapiens, NHIK3025, 24 h, Table 4, 24 hours, 1.0 mM BASS or BASS-d1 alone (0 mM Asc), read-out: Surviving fraction.

Structures can show the parent of a compound that is named as a salt. Where two headings read alike, the source gives them in different places.

As for `OC1O[C@@H]2COC(c3ccccc3)O[C@H]2[C@H](O)[C@H]1O` (stereo partly drawn) [4,6-O-benzylidene glucose], the synergistic effects entry in series [1] was “without observing any synergistic effects”.

Turning to `O=C1O[C@H]([C@@H](O)CO)C(O)=C1O` [Asc, L-ascorbic acid, reference compound], the results for the “rate of protein synthesis” value in the series on NHIK 3025 cells [2] (1.0 mM Asc alone) and with NHIK 3025 cells [2] (3.2 mM Asc alone) were 2.96±0.04 %/h and 1.5±0.2 %/h, respectively. Moreover, the viability at 1600 µM came out at 91 ± 1% in the series on NHIK 3025 cells [3] (Homo sapiens, NHIK3025, 4 h, Table 3, 4 hours, 1.6 mM Asc alone, read-out: Surviving fraction); 61 ± 4% in the series with NHIK 3025 cells [3] (Homo sapiens, NHIK3025, 24 h, Table 1, 24 hours, 1.6 mM Asc alone (0 mM BASS), read-out: Surviving fraction); 54 ± 2% in the series with NHIK 3025 cells [3] (Homo sapiens, NHIK3025, Table 2 (further experiment, similar to Table 1), 1.6 mM Asc alone, read-out: Surviving fraction). For the same compound, the viability at 3200 µM with NHIK 3025 cells [3] (Homo sapiens, NHIK3025, 4 h, Table 3, 4 hours, 3.2 mM Asc alone, read-out: Surviving fraction) worked out at 27 ± 3%; in the series with NHIK 3025 cells [3] (Homo sapiens, NHIK3025, 24 h, Table 1, 24 hours, 3.2 mM Asc alone (0 mM BASS), read-out: Surviving fraction) it was 11 ± 0.8%; with NHIK 3025 cells [3] (Homo sapiens, NHIK3025, Table 2 (further experiment, similar to Table 1), 3.2 mM Asc alone, read-out: Surviving fraction), 8.7 ± 1%. The viability at 800 µM with NHIK 3025 cells [3] (Homo sapiens, NHIK3025, 24 h, Table 1, 24 hours, 0.8 mM Asc alone (0 mM BASS), read-out: Surviving fraction) was 91 ± 9%; in the series with NHIK 3025 cells [3] (Homo sapiens, NHIK3025, Table 2 (further experiment, similar to Table 1), 0.8 mM Asc alone, read-out: Surviving fraction) it was 95 ± 5%. The viability at 1200 µM amounted to 80% in the series on NHIK 3025 cells [3] (Homo sapiens, NHIK3025, 24 h, Table 1, 24 hours, 1.2 mM Asc alone (0 mM BASS), read-out: Surviving fraction) and 69 ± 2% in the series with NHIK 3025 cells [3] (Homo sapiens, NHIK3025, Table 2 (further experiment, similar to Table 1), 1.2 mM Asc alone, read-out: Surviving fraction). The viability at 2400 µM is 40 ± 3% with NHIK 3025 cells [3] (Homo sapiens, NHIK3025, 24 h, Table 1, 24 hours, 2.4 mM Asc alone (0 mM BASS), read-out: Surviving fraction) and 29 ± 1% with NHIK 3025 cells [3] (Homo sapiens, NHIK3025, Table 2 (further experiment, similar to Table 1), 2.4 mM Asc alone, read-out: Surviving fraction). For the same compound, the Surviving fraction with NHIK 3025 cells [3] (Table 1, 24 hours, 1.2 mM Asc alone (0 mM BASS), 1200 µM) is 0.80±0.09.

As for `[2H]C1(c2ccccc2)OC[C@@H]([C@H]2OC(=O)C(O)=C2O)O1` (stereo partly drawn) [BASS-d₁, sodium salt of 5,6-O-benzylidene-L-ascorbic acid deuterated at the 1-position of the aldehyde group of the benzylidene moiety], the “rate of protein synthesis” value in the series with NHIK 3025 cells [2] (setting [4]) turned out to be 3.03±0.16 %/h; with NHIK 3025 cells [2] (setting [5]) it was 2.00±0.03 %/h. For the same compound, the viability at 1000 µM with NHIK 3025 cells [3] (setting [6]) was determined as 55 ± 5%.

Consider `O=C1O[C@H]([C@@H]2COC(c3ccccc3)O2)C(O)=C1O` (stereo partly drawn) [BASS, sodium salt of 5,6-O-benzylidene-L-ascorbic acid], for which the “rate of protein synthesis” value was 3.06±0.02 %/h with NHIK 3025 cells [2] (setting [4]) and 1.71±0.05 %/h in the series on NHIK 3025 cells [2] (setting [5]). Also, the viability at 1600 µM with NHIK 3025 cells [3] (Homo sapiens, NHIK3025, 4 h, Table 3, 4 hours, 1.6 mM BASS alone, read-out: Surviving fraction) came to 80 ± 5%; with NHIK 3025 cells [3] (Homo sapiens, NHIK3025, 24 h, Table 1, 24 hours, 1.6 mM BASS alone (0 mM Asc), read-out: Surviving fraction) it was 52 ± 2%; in the series on NHIK 3025 cells [3] (Homo sapiens, NHIK3025, 24 h, read-out: Surviving fraction), 24 ± 3%; in the series with NHIK 3025 cells [3] (Homo sapiens, NHIK3025, Table 2 (further experiment, similar to Table 1), 1.6 mM BASS alone, read-out: Surviving fraction), 44 ± 3%. Besides, the viability at 3200 µM was 36 ± 3% in the series with NHIK 3025 cells [3] (Homo sapiens, NHIK3025, 4 h, Table 3, 4 hours, 3.2 mM BASS alone, read-out: Surviving fraction); 1.1 ± 0.1% with NHIK 3025 cells [3] (Homo sapiens, NHIK3025, 24 h, Table 1, 24 hours, 3.2 mM BASS alone (0 mM Asc), read-out: Surviving fraction); 3.9 ± 0.4% in the series with NHIK 3025 cells [3] (Homo sapiens, NHIK3025, Table 2 (further experiment, similar to Table 1), 3.2 mM BASS alone, read-out: Surviving fraction). Besides, the viability at 1000 µM was found to be 76% in the series with NHIK 3025 cells [3] (Homo sapiens, NHIK3025, 24 h, Table 1, 24 hours, 1.0 mM BASS alone (0 mM Asc), read-out: Surviving fraction); 62 ± 5% in the series with NHIK 3025 cells [3] (setting [6]); 63 ± 8% with NHIK 3025 cells [3] (Homo sapiens, NHIK3025, Table 2 (further experiment, similar to Table 1), 1.0 mM BASS alone, read-out: Surviving fraction). Also, the viability at 500 µM with NHIK 3025 cells [3] (Homo sapiens, NHIK3025, Table 2 (further experiment, similar to Table 1), 0.5 mM BASS alone, read-out: Surviving fraction) worked out at 91 ± 7%. The Surviving fraction in the series on NHIK 3025 cells [3] (Table 1, 24 hours, 1.0 mM BASS alone (0 mM Asc), 1000 µM) was determined as 0.76±0.02.
